The results in this text go back to patent publication US8815535B2, “Disk diffusion assay for oritavancin” (The Medicines Company, priority 2011, dated 2014).

The test system of the test is MSSA ATCC 25923. Briefly: Disk diffusion assay (zone of inhibition). The conditions noted are these: for Effect of addition of 5% P80 on zone diameter (average increase): MSSA ATCC 25923, disks containing 30 μg; for zone of inhibition at 30 µg/disc: Staphylococcus aureus, 30 μg in disk, without prediffusion, average of 2 disks. Type of test: cell-based, Staphylococcus aureus. An excerpt: The study was designed to identify conditions that improve oritavancin diffusion in agar and consequently yield a zone diameter ≧15 mm for the CLSI quality control strain MSSA ATCC 25923. Excipients that increased the disk diffusion of oritavancin in agar relative to disks containing only oritavancin were identified and selected for further study. […] A prediffusion step at room temperature was introduced to maximize oritavancin diffusion prior to initiation of bacterial growth. In this step, the antimicrobial disks were placed on agar plates seeded with a bacterial isolate and incubated at room temperature for 3 hours. Plates were then incubated overnight at 37° C. Zone diameters around the disks in which bacterial growth was inhibited were measured with a ruler and reported in millimeters.
Ethanol-sterilized Whatman paper disks (6 mm diameter) were allowed to dry then impregnated with 20 microliters of oritavancin solution containing total amounts ranging from 90 to 360 micrograms. Disks were allowed to dry at room temperature for various times prior to use.
Bacterial suspensions were prepared and adjusted to an optical density of 0.1 at 600 nm. […] The plate was swabbed a second time, perpendicular to the orientation of the first swab. To assess the impact of prediffusion on diameter of inhibition zones, two disks were immediately placed on one half of the plate and the plate was incubated for 3 hours at room temperature. After 3 hours, two additional disks were placed on the other half of the plate then the plate was incubated overnight at 37° C. Zone diameters were measured with a ruler and reported in millimeters. […]
Oritavancin powder was dissolved in freshly-prepared solutions of the indicated excipients at concentrations of 0.625, 1.25, 2.5, 5, and 10 mg/ml (adjusted for potency based on lot 875561L00 purity of 83.1%) by vortexing for a minimum of 5 minutes. Oritavancin solutions in the various excipients, while not visually clear, were free from any apparent particulates as assessed visually. Sterile Oxoid blank disks were impregnated with 20 μl of these oritavancin solutions, resulting in oritavancin disk loads ranging from 12.5 to 200 μg. Unless indicated otherwise, disks were allowed to dry overnight at room temperature prior to use.
[…] Swabbing was continued at a right angle and then at an oblique angle to the first and second swabs. Disks were placed upon the seeded plates with sterile forceps. Plates were then incubated overnight at 37° C. and inhibition zone diameters were measured with a ruler and reported in millimeters.
On the technique in general: In agar diffusion tests the substance spreads into inoculated agar from a disc or well.

Where [1] appears, read: read-out: Average zone diameter, S. aureus ATCC 25923, +5% P80.
Where [2] appears, read: read-out: Average zone diameter, S. aureus ATCC 25923, Control (without P80).

Like-named read-outs stand apart in the source and are kept apart here.

On to `CCCCCCCCCC(=O)N[C@@H](Cc1c[nH]c2ccccc12)C(=O)N[C@H](CC(N)=O)C(=O)N[C@@H](CC(=O)O)C(=O)N[C@@H]1C(=O)NCC(=O)N[C@@H](CCCN)C(=O)N[C@@H](CC(=O)O)C(=O)N[C@H](C)C(=O)N[C@@H](CC(=O)O)C(=O)NCC(=O)N[C@H](CO)C(=O)N[C@@H]([C@H](C)CC(=O)O)C(=O)N[C@@H](CC(=O)c2ccccc2N)C(=O)O[C@@H]1C` [Daptomycin], for which the “Effect of addition of 5% P80 on zone diameter (average increase)” value is listed as “no effect”. In addition, for the setting “S. aureus ATCC 25923, +5% P80, read-out: Average zone diameter”, the zone of inhibition at 30 µg/disc worked out at 18 mm. Also, the zone of inhibition at 30 µg/disc (S. aureus ATCC 25923, Control (without P80), read-out: Average zone diameter) was determined as 18.5 mm.
Take `CCCCCCCCCCNCCN[C@@]1(C)C[C@H](O[C@H]2[C@H](Oc3c4cc5cc3Oc3ccc(cc3Cl)[C@@H](O)[C@@H](NC(=O)[C@@H](CC(C)C)NC)C(=O)N[C@@H](CC(N)=O)C(=O)N[C@H]5C(=O)N[C@H]3C(=O)N[C@H](C(=O)N[C@H](C(=O)O)c5cc(O)c(CNCP(=O)(O)O)c(O)c5-c5cc3ccc5O)[C@H](O)c3ccc(c(Cl)c3)O4)O[C@H](CO)[C@@H](O)[C@@H]2O)O[C@@H](C)[C@H]1O` [Telavancin]: the zone of inhibition at 30 µg/disc came to 18 mm under setting [1] and 16.5 mm under setting [2].
As for `CN[C@H](CC(C)C)C(=O)N[C@H]1C(=O)N[C@@H](CC(N)=O)C(=O)N[C@H]2C(=O)N[C@H]3C(=O)N[C@H](C(=O)N[C@H](C(=O)O)c4cc(O)cc(O)c4-c4cc3ccc4O)[C@H](O)c3ccc(c(Cl)c3)Oc3cc2cc(c3O[C@@H]2O[C@H](CO)[C@@H](O)[C@H](O)[C@H]2O[C@H]2C[C@](C)(N)[C@H](O)[C@H](C)O2)Oc2ccc(cc2Cl)[C@H]1O` [Vancomycin], the “Effect of addition of 5% P80 on zone diameter (average increase)” value is recorded as “no effect”. Also, the zone of inhibition at 30 µg/disc under setting [1] was found to be 17.5 mm. Moreover, under setting [2], the zone of inhibition at 30 µg/disc is 17.5 mm.
